Results published in US20120076899A1, “SHELF STABLE MONATIN SWEETENED BEVERAGE” (Cargill, Incorporated, priority 2009, published 2012).

How the values were obtained:
[1] = Total indole concentrations following sunlight exposure; format: physicochemical
Experimental: Synthetic R,R-monatin containing approximately 95.4% R,R-monatin monopotassium salt (dry basis) was obtained from CSIR (Modderfontein, South Africa). About 39 mg/L of this monatin was placed in a buffered solution at a pH of about 2.8-3.0 comprising 9 mM citric acid-trisodium citrate in high purity water and preserved with about 150 mg/L sodium benzoate. To some samples 200 ppm SANMELIN™ AO-3000 enzymatically modified isoquercitrin (EMIQ) (San-Ei Gen F.F.I.—Osaka, Japan) was added. Dissolved O2 levels were either increased by bubbling compressed air or reduced by bubbling N2 (99.9% purity) through these samples until the target O2 concentrations were achieved. Dissolved O2 levels were determined at 20° C. using a FOXY fluorescence quenching O2 analyzer from Ocean Optics (Dunedin, Fla.). Samples were stored in clear, glass ampules (˜10 mL) after O2 adjustment and heat-sealed to create an air-tight enclosure. The samples were then either stored in the dark, or exposed to sunlight. The exposure to sunlight is a much harsher environment for photosensitive compounds than the fluorescent light box because sunlight is many times brighter (˜100,000 Lux vs. ˜2200 Lux) and produces higher-energy, UV radiation. In order to test samples under these alternate conditions, samples were stored outside and exposed to sunlight where temperatures varied from about 5 to about 30 degrees C. and light intensity ranged from 0 at night to about 100,000 Lux on a clear day. Duplicate samples were analyzed weekly for total indole concentrations via the following method.
(§1) Total indole (monatin and its intramolecular rearrangement products, monatin lactone and monatin lactam) concentrations were quantified by reversed phase HPLC at 40° C. using an Agilent Zorbax Eclipse C18 column with UV detection at 280 nm by PDA. The compounds were eluted by a gradient mobile phase consisting of (A) 1:1 methanol and acetonitrile (v:v) with 0.3% formic acid and 10 mM ammonium formate and (B) 0.3% formic acid in water with 10 mM ammonium formate. The integrated peak areas for the three (3) compounds were expressed in terms of monatin concentration (mg/L) based on a standard curve prepared for monatin. Thus, the extinction coefficient for monatin was applied to estimate concentrations of monatin lactone and monatin lactam since standards for these compounds were unavailable.

[2] = Total indole concentrations over range of dissolved oxygen concentrations (light box storage); format: physicochemical; settings: continuous light ~2200 lux, 28° C., pH 2.8-3.0
Experimental: Synthetic R,R-monatin containing approximately 95.4% R,R-monatin monopotassium salt (dry basis) was obtained from CSIR (Modderfontein, South Africa). About 100 mg/L of this monatin was placed in a buffered solution at a pH of about 2.8-3.0 comprising 9 mM citric acid-trisodium citrate in high purity water and preserved with about 150 mg/L sodium benzoate. Dissolved O2 levels were either increased by bubbling compressed air or reduced by bubbling N2 (99.9% purity) through these samples until the target O2 concentrations were achieved. Dissolved O2 levels were determined at 20° C. using a FOXY fluorescence quenching O2 analyzer from Ocean Optics (Dunedin, Fla.). Samples were stored in clear, glass ampules (˜10 mL) after O2 adjustment and heat-sealed to create an air-tight enclosure. The samples were then exposed to light continuously (24 hours per day) in a light box (˜2200 lux light intensity) configured with a rotating carousel to provide even illumination. The source of light was provided by ultra-violet (UV) light wavelength transmitting bulbs and standard fluorescent bulbs. The heat produced by the lights warmed the samples to a temperature of about 28° C. Duplicate samples of each treatment were analyzed weekly for total indole concentrations via the following method.
as §1

## NC(CC(O)(Cc1c[nH]c2ccccc12)C(=O)O)C(=O)O (stereo not drawn) [R,R-monatin, 2-hydroxy-2-(indol-3-ylmethyl)-4-aminoglutaric acid]
[1]; 8.3 mg/L O2, 0 ppm EMIQ, Dark, 0 d
  Total Indole Concentration: 38.5 mg/L
[1]; 8.3 mg/L O2, 0 ppm EMIQ, Dark, 7 d
  Total Indole Concentration: 39.4 mg/L
[1]; 8.3 mg/L O2, 0 ppm EMIQ, Dark, 14 d
  Total Indole Concentration: 38.0 mg/L
[1]; 8.3 mg/L O2, 0 ppm EMIQ, Dark, 21 d
  Total Indole Concentration: 36.9 mg/L
[1]; 8.3 mg/L O2, 0 ppm EMIQ, Dark, 28 d
  Total Indole Concentration: 39.1 mg/L
[1]; 8.3 mg/L O2, 0 ppm EMIQ, Light (sunlight), 0 d
  Total Indole Concentration: 38.5 mg/L
[1]; 8.3 mg/L O2, 0 ppm EMIQ, Light (sunlight), 7 d
  Total Indole Concentration: 0.0 mg/L
[1]; 8.3 mg/L O2, 0 ppm EMIQ, Light (sunlight), 14 d
  Total Indole Concentration: 0.0 mg/L
[1]; 8.3 mg/L O2, 0 ppm EMIQ, Light (sunlight), 21 d
  Total Indole Concentration: 0.0 mg/L
[1]; 8.3 mg/L O2, 0 ppm EMIQ, Light (sunlight), 28 d
  Total Indole Concentration: 0.0 mg/L
[1]; <0.5 mg/L O2, 0 ppm EMIQ, Light (sunlight), 0 d
  Total Indole Concentration: 38.5 mg/L
[1]; <0.5 mg/L O2, 0 ppm EMIQ, Light (sunlight), 7 d
  Total Indole Concentration: 39.7 mg/L
[1]; <0.5 mg/L O2, 0 ppm EMIQ, Light (sunlight), 14 d
  Total Indole Concentration: 34.4 mg/L
[1]; <0.5 mg/L O2, 0 ppm EMIQ, Light (sunlight), 21 d
  Total Indole Concentration: 32.0 mg/L
[1]; <0.5 mg/L O2, 0 ppm EMIQ, Light (sunlight), 28 d
  Total Indole Concentration: 30.6 mg/L
[1]; <0.5 mg/L O2, 200 ppm EMIQ, Light (sunlight), 0 d
  Total Indole Concentration: 38.5 mg/L
[1]; <0.5 mg/L O2, 200 ppm EMIQ, Light (sunlight), 7 d
  Total Indole Concentration: 36.0 mg/L
[1]; <0.5 mg/L O2, 200 ppm EMIQ, Light (sunlight), 14 d
  Total Indole Concentration: 38.4 mg/L
[1]; <0.5 mg/L O2, 200 ppm EMIQ, Light (sunlight), 21 d
  Total Indole Concentration: 32.8 mg/L
[1]; <0.5 mg/L O2, 200 ppm EMIQ, Light (sunlight), 28 d
  Total Indole Concentration: 36.7 mg/L
[2]; 0.4 mg/L O2, 0 Days
  Total Indole Concentration: 104.0 mg/L
[2]; 0.4 mg/L O2, 7 Days
  Total Indole Concentration: 98.7 mg/L
[2]; 0.4 mg/L O2, 14 Days
  Total Indole Concentration: 102.9 mg/L
[2]; 0.4 mg/L O2, 21 Days
  Total Indole Concentration: 97.5 mg/L
[2]; 0.4 mg/L O2, 28 Days
  Total Indole Concentration: 96.2 mg/L
[2]; 1.5 mg/L O2, 0 Days
  Total Indole Concentration: 104.0 mg/L
[2]; 1.5 mg/L O2, 7 Days
  Total Indole Concentration: 97.1 mg/L
[2]; 1.5 mg/L O2, 14 Days
  Total Indole Concentration: 90.6 mg/L
[2]; 1.5 mg/L O2, 21 Days
  Total Indole Concentration: 93.3 mg/L
[2]; 1.5 mg/L O2, 28 Days
  Total Indole Concentration: 76.0 mg/L
[2]; 4.0 mg/L O2, 0 Days
  Total Indole Concentration: 104.0 mg/L
[2]; 4.0 mg/L O2, 7 Days
  Total Indole Concentration: 94.6 mg/L
[2]; 4.0 mg/L O2, 14 Days
  Total Indole Concentration: 71.3 mg/L
[2]; 4.0 mg/L O2, 21 Days
  Total Indole Concentration: 58.0 mg/L
[2]; 4.0 mg/L O2, 28 Days
  Total Indole Concentration: 14.6 mg/L
[2]; 6.5 mg/L O2, 0 Days
  Total Indole Concentration: 104.0 mg/L
[2]; 6.5 mg/L O2, 7 Days
  Total Indole Concentration: 97.0 mg/L
[2]; 6.5 mg/L O2, 14 Days
  Total Indole Concentration: 75.7 mg/L
[2]; 6.5 mg/L O2, 21 Days
  Total Indole Concentration: 54.7 mg/L
[2]; 6.5 mg/L O2, 28 Days
  Total Indole Concentration: 0.0 mg/L
[2]; 8.3 mg/L O2, 0 Days
  Total Indole Concentration: 104.0 mg/L
[2]; 8.3 mg/L O2, 7 Days
  Total Indole Concentration: 89.6 mg/L
[2]; 8.3 mg/L O2, 14 Days
  Total Indole Concentration: 49.9 mg/L
[2]; 8.3 mg/L O2, 21 Days
  Total Indole Concentration: 21.3 mg/L
[2]; 8.3 mg/L O2, 28 Days
  Total Indole Concentration: 0.0 mg/L
